Measured values taken from US8574899B2, “Methods for augmentation collection of placental hematopoietic stem cells and uses thereof” (priority 2010, dated 2013).
Marks after values point to notes of the source that are not given here.

Tests used:
[1] = target: CXCR4 (Homo sapiens, UniProt P61073); details: in vivo; cited from earlier work
[2] = test system: human placenta; details: 6-8 hour vascular perfusion of placenta; cited from earlier work
[3] = test system: human term placentas; experiment: Yield of TNC, CD34+CD45dim cells and CFU from placenta infused with cell-liberating compounds; format: cell-based; details: infusion in PBS+, incubated 3-8 hours at 37° C., mean, N = 5; for Yield of colony-forming unit cells (CFU) obtained from placenta related to cord blood unit from the same donor: Methocult 12-14 days
Text: HSCs and HPCs of the current invention were collected from 30 human term placentas by use of different cell-liberating compounds. Following IRB approval and informed consent, human term placentas were obtained from healthy females following caesarian section. Freshly obtained human placentas, which had been subjected to a conventional cord blood recovery process by draining substantially all of the cord blood from the placenta were used. Cord blood was collected from umbilical cord using standard techniques. Placentas were first infused with an anticoagulant/vasodilator solution (Heparin 30 […] 0.05 mg/ml) at a temperature of 20° C. For infusion procedures, artery and vein of umbilical cord were further cannulated and connected to a reservoir. Pressure in the umbilical cord artery and vein was constantly measured using Baxter pressure transducers (Protocol Systems, Portland, Oreg.). Constant temperature of infusate was maintained using heat exchange unit connected to temperature-controlled water bath. Placentas was infused with 100 ml phosphate buffered saline with additives: heparin (10 […]-acetyl-cysteine (1 mM), gentamycin (0.05 mg/ml) (PBS+) (Experiment 1), or 100 ml PBS+ with 3 mg/L AMD3100 (Sigma, St. Louis, Mo.) (Experiment 2); or 100 ml PBS+ with 1 mg/ml BIO5192 (Experiment 3). BIO5192 was supplied by AnorMED (Vancouver, BC) as a sterile powder and reconstituted in pH 7.0 ethanol:propylene glycol:water (10:36:54). In Experiment 4 100 ml PBS+ with 1 mg/ml Trypsin and 0.1 mg/ml Collagenase I (Sigma, St. Louis, Mo.) was infused into the placental artery or vein. In Experiment 5 100 ml PBS+ with Etoposide (1 mM) was infused into placental vein. […] Following incubation, fluid with cells was drained out of placental vessels and umbilical vein was infused with 100 ml of PBS and later flushed out 4 times via the umbilical artery. Collected cell suspension was centrifuged for 10 min at 1000 rpm, cells at the bottom collected and reconstituted in 10 ml PBS with heparin for further analyses. The following analyses were performed on cord blood and cell suspensions obtained from placenta: number of total nucleated cells determined by flow cytometry, number of CD34^+ and CD34^+CD45^dim cells determined by immunostaining with antibodies to CD34 and CD45, flow cytometry performed using FACS Calibur flow cytometer (BD Biosciences) and FlowJo software. Amounts of colony-forming unit cells were determined by culturing cells for 12-14 days in Methocult® medium (Stem Cell Technologies, Vancouver, Canada) according to manufacturer's instruction. Data obtained from cells collected from placental circulation were normalized to same variables obtained by analyses of cord blood cells (cord blood unit) collected from the corresponding placenta and are presented as percent of cord blood unit.

[4] = target: α4β1 integrin (Homo sapiens, UniProt P05556+P13612); details: unactivated and activated forms of α4β1 integrin; cited from earlier work
[5] = target: T1, α4-subunit of the α4β1 (VLA-4) and α4β7 integrins (Homo sapiens, UniProt P13612); details: MS patients after anti-α4 integrin antibody administration; cited from earlier work
T1 construct: host or cells: MS patients (in vivo, endogenous protein)

Chain of CXCR4 (P61073 whole entry, species assumed, the tested form may be a part): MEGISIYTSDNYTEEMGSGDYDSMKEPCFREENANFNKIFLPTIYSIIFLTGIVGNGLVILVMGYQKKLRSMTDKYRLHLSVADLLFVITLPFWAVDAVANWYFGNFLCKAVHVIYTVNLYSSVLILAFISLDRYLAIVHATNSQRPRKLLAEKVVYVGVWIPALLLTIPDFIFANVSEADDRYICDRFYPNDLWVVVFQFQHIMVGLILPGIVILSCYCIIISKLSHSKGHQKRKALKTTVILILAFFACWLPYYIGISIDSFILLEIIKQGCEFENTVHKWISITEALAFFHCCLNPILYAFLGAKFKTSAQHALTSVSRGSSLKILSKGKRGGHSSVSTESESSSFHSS

Row | Molecule | Mobilization of hematopoietic stem cells from the bone marrow to the bloodstream [1] | Increase of yield of HSC from perfusate as compared to cord blood unit HSCs [2] | Yield of colony-forming unit cells (CFU) obtained from placenta related to cord blood unit from the same donor [3] | Yield of CD34+CD45dim cells obtained from placenta related to cord blood unit from the same donor [3] | Yield of TNC obtained from placenta related to cord blood unit from the same donor [3] [%] | Kd [4] [nM] | Circulating HSPCs [5]
1 | c1cc(CN2CCCNCCNCCCNCC2)ccc1CN1CCCNCCNCCCNCC1 [AMD3100, 1,1′-[1,4-phenylene-bis(methylene)]-bis-1,4,8,11-tetraazacyclotetradecane] | strong inducer of mobilization of hematopoietic stem cells | several-fold | 332* % | 412* % | 31 | – | –
2 | Cc1ccccc1NC(=O)Nc1ccc(CC(=O)N(C)[C@@H](CC(C)C)C(=O)NCC[C@H](NC(=O)[C@@H]2CCCN2S(=O)(=O)c2cc(Cl)cc(Cl)c2)C(=O)O)cc1 [BIO5192] | – | – | 423* % | 524* % | 24 | < 0.01 | –
3 | COc1cc([C@@H]2c3cc4c(cc3[C@@H](O[C@@H]3O[C@@H]5CO[C@@H](C)O[C@H]5[C@H](O)[C@H]3O)[C@H]3COC(=O)[C@H]23)OCO4)cc(OC)c1O [Etoposide] | – | – | 211* % | 185* % | 18 | – | –
4 | natalizumab: recombinant humanized neutralizing IgG4 monoclonal antibody that binds the α4-subunit of α4β1 (VLA-4) and α4β7 integrins | – | – | – | – | – | – | rapid and sustained increase in circulating HSPCs
